Several values for one entry are separate records, joined by “and”; a condition that tells them apart may be missing. Identical values can stand only once.
Key:
[1] = system: T24 cells; assay: Colony-formation assay (decrease in plating efficiency) in T24 cells; assay type: cell-based, human; details: 3 μM, 24 hrs
Procedure: (§1) The percentage cell survival was assessed by dividing the mean colony number on the treated plates divided by the mean colony number on the untreated plates ×100.

[2] = system: p16 promoter; assay: Ms-SNuPE quantitation of DNA methylation in T24 cells, p16 promoter; assay type: cell-based, human; details: 3 μM, 24 hrs; control 96
Procedure: (§2) The average methylation at defined CpG sites was quantitated using a Ms-SNuPE assay, as described by Gonzalgo and Jones (Nucleic Acids Res. 25:2529-2531, 1997) and U.S. Pat. No. 6,251,594. Briefly, genomic DNA (˜4 μg) was digested overnight with 4 units of EcoRI (Boehringer Mannheim) (p16 promoter/exon 1 and p16 exon 2; FIG. 9A) or with 4 units of RsaI (Boehringer Mannheim) (P3; FIG. 9B) to cut outside the region of interest.
(§3) After standard treatment with sodium bisulfite, a PCR product of the region was generated as template for top-strand methylation analysis. The sequences of the primers used for bisulfite-treated DNA amplification were as follows: […]
p16 promoter/exon 1: 94° C. for 3 minutes, 94° C. for 45 seconds, 67° C. for 45 seconds, and 72° C. for 45 seconds for 40 cycles, with a final extension step at 72° C. for 10 minutes.
(§4) Duplicates of 4 μl of template were then added to 6 μl of mixture consisting of 1× PCR buffer, 1 μM final concentration primers, 1 μCi of [^32P]dCTP or dTTP, and 1 unit 1:1 Taq/TaqStart antibody (Clontech, Palo Alto, Calif.). Single nucleotide extension involved incubation at 95° C. for 1 minute, then 50° C. for 2 minutes, and finally 72° C. for 1 minute (p16 promoter/exon1 and P16 exon 2) and 95° C. for 1 minute, then 46° C. for 30 seconds, and finally 72° C. for 20 seconds (P3). The sequences for SNuPE primers were as follows: […]
(§5) After briefly spinning down the tubes, 4 μl of stop solution were added to the 10-μl reaction volume, and the samples were boiled for 5 minutes at 95° C. before loading 1.5 μl onto a 15% denaturing polyacrylamide gel (7 M urea). The gel was run at 90 W for 1.5 hours and then dried at 80° C. for 40 minutes. The gel was exposed to a phosphorimaging cassette for quantitation of the ratio of [^32P]dCTP versus [^32P]dTTP incorporation, and the quantitation of the percent methylation was averaged from three separate CpG sites. The gel was then exposed to BioMax MR film (Kodak) to record experimental results.

[3] = system: p3 locus; assay: Ms-SNuPE quantitation of DNA methylation in 10T1/2 cells; assay type: cell-based, mouse; details: 0.3 μM, 24 hours, control 86
Procedure: as §2, §3
P3: 95° C. for 2 minutes, 95° C. for 1 minute, 50° C. for 50 seconds, and 72° C. for 1 minute for 40 cycles, with a final extension at 72° C. for 10 minutes.
as §4, §5

[4] = system: 10T1/2 cells; assay: Colony-formation assay (plating efficiency) in 10T1/2 cells; assay type: cell-based, mouse
Procedure: as §1

[5] = system: p16 gene expression in T24 cells; assay: RT-PCR analysis of p16 expression in T24 cells; assay type: cell-based, human; details: 3 μM
Procedure: The T24 cell line was obtained from the American Type Culture Collection (Rockville, Md.) and cultured in DMEM supplemented with 10% heat-inactivated fetal calf serum and 100 U/ml penicillin-streptomycin. Cultures were grown in a humidified incubator at 37° C. in an atmosphere of 5% CO2 in air.
Cells were plated (3×10^5 cells/100-mm dish) and treated 24 hours later with the indicated concentrations of compounds. The medium was either changed 24 hours or 48 hours after drug treatment.
DNA and RNA were isolated three days after treatment using the NucleoBond RNA/DNA Midi Kit (Clontech Laboratories, Inc., Palo Alto, Calif.).
Total RNA (˜10 μg) was reverse-transcribed using the following reagents: 100 units RNAsin (Promega Corp., Madison, Wis.), 0.1 M DTT (Life Technologies, Inc.), 1000 units of MMLV-RT (Life Technologies, Inc.), 1 mM deoxynucleotide triphosphates (Boehringer Mannheim, Germany), 75 μg/ml BSA, 1× MMLV-RT buffer (Life Technologies, Inc.), and 0.025 ODU Random Hexamers (Amersham-Pharmacia Biotech, Piscataway, N.J.). The reaction mixture was incubated for 10 minutes at 25° C., 45 minutes at 42° C., 3 minutes at 90° C., and chilled for 5 minutes at 4° C., during which time 1.25 μl of MMLV-RT (200 U/μl) were added and the sample then incubated for 45 minutes at 42° C., 10 minutes at 75° C., and stored at −20° C.
cDNA was amplified with primers specific for either p16 or GAPDH. Briefly, PCR reactions were performed in 25-μl volumes at 94° C. for 3 minutes, 28 cycles at 94° C. for 1 minute, 56° C. for 30 seconds, 72° C. for 40 seconds, and a final extension step at 72° C. for 5 min (p16 amplification), and 94° C. for 1 minute, 19 cycles at 94° C. for 1 minute, 58° C. for 30 seconds, 72° C. for 45 seconds, and a final extension step at 72° C. for 2 minutes (GAPDH amplification).
PCR amplifications were performed with cDNA template concentration equivalent to 100 ng of RNA in 10% DMSO. All reactions were analyzed in the linear range of amplification. PCR products were resolved on 2% agarose gels and subsequently transferred to a nylon membrane (Zetaprobe; Bio-Rad, Richmond, Calif.) under alkaline conditions. All blots were hybridized with a γ-^32P-labeled internal oligonucleotide probe, using protocols previously described (Xiong and Laird, Nuc. Acids Res. 25:2532-2534, 1997).
Since 5-Aza-CdR has been shown previously to induce p16 expression in a dose-dependent manner (Bender et al., Cancer Res. 58:95-101, 1998), the two ribonucleoside analogs 5-Aza-CR and Zeb were examined to determine their abilities to induce p16 expression (FIG. 8). Because Zeb is stable in aqueous solution, the effect of prolonging Zeb treatment on p16 expression was tested by treating these cells with different concentrations of Zeb for either 24 hours or 48 hours. RT-PCR was then performed to determine whether p16 gene was induced by drug treatment.

[6] = system: 10T1/2 cells; assay: Induction of a myogenic phenotype (myotube formation) in 10T1/2 cells; assay type: cell-based, mouse; parameters: key to Muscle Formation: + representing minimal muscle formation; scored for muscle cells 9-10 days later as + to +++; +++ representing maximal muscle formation
Procedure: Cells were plated (3×10^5 cells/100-mm dish) and treated 24 hours later with the indicated concentrations of compounds. The medium was either changed 24 hours or 48 hours after drug treatment. Myotube formation was assayed in 10T1/2 cells as previously described (Constantinides et al., Nature 267:364-366, 1977). […] The ability of Zebularine to cause 10T1/2 cells to undergo the myogenic switch was therefore tested (FIG. 7).

[7] = system: p16 exon 2; assay: Ms-SNuPE quantitation of DNA methylation in T24 cells, p16 exon 2; assay type: cell-based, human; details: 3 μM, 24 hrs
Procedure: as §2, §3
p16 exon 2: 94° C. for 3 minutes, 94° C. for 1 minute, 62° C. for 45 seconds, and 72° C. for 45 seconds for 40 cycles, with a final extension step at 72° C. for 10 minutes.
as §4, §5

[8] = system: DNA methylation of the am^RIP and ψ63 sequences; assay: Southern blot analysis of DNA methylation in N. crassa (Dpn II vs Sau3AI digests); assay type: cell-based, Neurospora crassa; details: 12 and 24 μM 5-AC; 0.33 and 3.3 μM TSA; 20, 39, 78, 160 and 310 μM Zebularine
Procedure: DNA was digested with Dpn II (D) or Sau3AI (S), fractionated by gel electrophoresis, transferred to a membrane and probed for am (FIG. 4A) or ψ63 (FIG. 4B) sequences. Dpn II and Sau3AI both recognize the sequence GATC, but Sau3AI fails to cleave if the C residue is methylated. Thus, differences between S and D lanes are indicative of DNA methylation.
The ramp symbols at the top of the figure represent increasing concentrations of drug. Drug concentrations were 12 and 24 μM 5-AC; 0.33 and 3.3 μM TSA; and 20, 39, 78, 160 and 310 μM Zebularine. The positions of selected size standards (kb) are indicated.
Southern hybridizations were performed on DNA samples (−1 μg) isolated from liquid cultures inoculated with 7×10^4 conidia/ml. DNA was digested with Dpn II (D) or Sau3AI (S), fractionated by gel electrophoresis, transferred to a nylon membrane and probed for am^RIP (FIG. 4A) or ψ63 (FIG. 4B) sequences. The restriction endonucleases Dpn II and-Sau3AI both recognize the sequence GATC, but Sau3AI fails to cleave if the C residue is methylated. Drug concentrations were […] 5-AC, 0.33 and 3.3 μM TSA, and […] Zebularine.
The positions of selected size standards (kb) and the origin (ori) are indicated. […] Differences between S and D lanes are indicative of DNA methylation.

Compound | Toxicity (%) (decrease in plating efficiency) [1] | p16 Promoter Methylation (%) [2] | % Methylation [3] | decrease in plating deficiency (cytotoxicity) ([4]; 0.3 μM, 10T1/2 cells) [%] | Ave. Plating Efficiency (%) ([4]; 0.3 μM, 250 cells, stained after 14-16 days, control 22) | cell death observed ([4]; 10T1/2 cells, 0.3 μM 5-Aza-CdR, 3 μM 5-Aza-CR, 30 μM Zebularine) | p16 expression (RT-PCR) [5] | Muscle Formation ([6]; 0.3 μM, 24 hours treatment, scored 9-10 days later) | muscle formation (micrographs, in words) ([6]; 10T1/2 cells, approximately 9-10 days after drug treatment) | Relative p16 Exon 2 De-methylation (%) [7] | p16 Exon 2 Methylation (%) ([7]; control 96) | effect on DNA methylation (Southern blot) [8]
Nc1ncn([C@H]2C[C@H](O)[C@@H](CO)O2)c(=O)n1 [5-Aza-CdR, 5-aza-2′-deoxycytidine] | 75 | 52% and 52 +/− 5% | 54% and 54 +/− 5% | 74 | 5 | appreciable cell death | robust expression of p16 | +++ | formed multinucleated myotubes | 47 +/− 1% | 51 +/− 1% | –
CC(/C=C/C(=O)NO)=C\[C@@H](C)C(=O)c1ccc(N(C)C)cc1 [TSA, trichostatin A] | – | – | – | – | – | – | – | – | – | – | – | selective inhibition of methylation
